Literature values as cited in PubChem BioAssay AID1259409 (Chemical Carcinogenesis Research Information System (CCRIS), 2018).

System: rodent chemically induced tumor inhibition, incidence and multiplicity
Experiment: CCRIS tumor inhibitor studies
Conditions: Promoter: NONE USED

O=C1O[C@H]([C@@H](O)CO)C(O)=C1O
tumour outcome (control, treated, inhibition, significance) (Carcinogen: N-METHYL-N-NITROSOUREA, 684-93-5, Dose [Inhibitor]: 1% IN 20% FAT DIET DAILY STARTING 2 WK BEFORE START OF CARCINOGEN TREATMENT AND CONTINUING FOR DURATION OF STUDY (STUDY, Route [Inhibitor]: ORAL, Species: RAT, Strain/Sex: F344/FEMALE, Target Tissue: Type of Lesion: MAMMARY GLAND: FIBROADENOMA, Dose [Carcinogen]: 2 MG 2/WK FOR 2 WK): 25%, 38%, -52%, not significant
tumour outcome (control, treated, inhibition, significance) (Carcinogen: N-NITROSOMORPHOLINE, 59-89-2, Dose [Inhibitor]: 22.7 G/KG OF DIET 5 D/WK FOR 2 YR STARTING SIMULTANEOUSLY WITH CARCINOGEN TREATMENT AT 8 WK OF AGE AND CONTINUING FOR DU, Route [Inhibitor]: ORAL, Species: RAT, Strain/Sex: MRC/MALE, Target Tissue: Type of Lesion: FORESTOMACH: SQUAMOUS CELL PAPILLOMA, SQUAMOUS CELL CARCINOMA, Dose [Carcinogen]: 0.15 G/L DRINKING WATER 5 D/WK FOR 2 YR): 1/41 (2%), 4/47 (9%), -350%, not calculated
tumour outcome (control, treated, inhibition, significance) (Carcinogen: N-NITROSOMORPHOLINE, 59-89-2, Dose [Inhibitor]: 22.7 G/KG OF DIET 5 D/WK FOR 2 YR STARTING SIMULTANEOUSLY WITH CARCINOGEN TREATMENT AT 8 WK OF AGE AND CONTINUING FOR DU, Route [Inhibitor]: ORAL, Species: RAT, Strain/Sex: MRC/MALE, Target Tissue: Type of Lesion: LIVER: KUPFFER CELL SARCOMA, Dose [Carcinogen]: 0.15 G/L DRINKING WATER 5 D/WK FOR 2 YR): 28/41 (68%), 34/47 (72%), -6%, not calculated
tumour outcome (control, treated, inhibition, significance) (Carcinogen: N-NITROSOMORPHOLINE, 59-89-2, Dose [Inhibitor]: 22.7 G/KG OF DIET 5 D/WK FOR 2 YR STARTING SIMULTANEOUSLY WITH CARCINOGEN TREATMENT AT 8 WK OF AGE AND CONTINUING FOR DU, Route [Inhibitor]: ORAL, Species: RAT, Strain/Sex: MRC/MALE, Target Tissue: Type of Lesion: LIVER: LIVER CELL CARCINOMA, Dose [Carcinogen]: 0.15 G/L DRINKING WATER 5 D/WK FOR 2 YR): 17/41 (41%), 20/47 (43%), -5%, not calculated
tumour outcome (control, treated, inhibition, significance) (Carcinogen: TRANS-5-AMINO-3-[2-(5-NITRO-2-FURYL)VINYL]-1,2,4-OXADIAZOLE;SQL8506, 28754-68-9, Carcinogen: TRANS-5-AMINO-3-[2-(5-NITRO-2-FURYL)VINYL]-1,2,4-OXADIAZOLE;SQL8506, 28754-68-9, Dose [Inhibitor]: 2 G/KG 16 HR BEFORE THE 1ST CARCINOGEN DOSE FOLLOWED BY ADDITIONAL DOSES IMMEDIATELY BEFORE EACH DOSE OF CARCINOGEN (STU, Route [Inhibitor]: INTRAPERITONEAL, Species: MOUSE, Strain/Sex: CD-1/FEMALE, Target Tissue: Type of Lesion: HEMATOPOIETIC SYSTEM: MYELOID LEUKEMIA, Dose [Carcinogen]: 1 G/KG 2/D FOR 5 D EVERY 4 WK FOR 3 COURSES OF TREATMENT): 7/137 (5%), 3/45 (7%), -40%, not calculated
tumour outcome (control, treated, inhibition, significance) (Carcinogen: TRANS-5-AMINO-3-[2-(5-NITRO-2-FURYL)VINYL]-1,2,4-OXADIAZOLE;SQL8506, 28754-68-9, Carcinogen: TRANS-5-AMINO-3-[2-(5-NITRO-2-FURYL)VINYL]-1,2,4-OXADIAZOLE;SQL8506, 28754-68-9, Dose [Inhibitor]: 2 G/KG 16 HR BEFORE THE 1ST CARCINOGEN DOSE FOLLOWED BY ADDITIONAL DOSES IMMEDIATELY BEFORE EACH DOSE OF CARCINOGEN (STU, Route [Inhibitor]: INTRAPERITONEAL, Species: MOUSE, Strain/Sex: CD-1/FEMALE, Target Tissue: Type of Lesion: LYMPHOID TISSUE: NONTHYMIC LYMPHOMA, Dose [Carcinogen]: 1 G/KG 2/D FOR 5 D EVERY 4 WK FOR 3 COURSES OF TREATMENT): 8/137 (6%), 2/45 (4%), 33%, not calculated
tumour outcome (control, treated, inhibition, significance) (Carcinogen: TRANS-5-AMINO-3-[2-(5-NITRO-2-FURYL)VINYL]-1,2,4-OXADIAZOLE;SQL8506, 28754-68-9, Carcinogen: TRANS-5-AMINO-3-[2-(5-NITRO-2-FURYL)VINYL]-1,2,4-OXADIAZOLE;SQL8506, 28754-68-9, Dose [Inhibitor]: 2 G/KG 16 HR BEFORE THE 1ST CARCINOGEN DOSE FOLLOWED BY ADDITIONAL DOSES IMMEDIATELY BEFORE EACH DOSE OF CARCINOGEN (STU, Route [Inhibitor]: INTRAPERITONEAL, Species: MOUSE, Strain/Sex: CD-1/FEMALE, Target Tissue: Type of Lesion: LYMPHOID TISSUE: THYMIC LYMPHOMA, Dose [Carcinogen]: 1 G/KG 2/D FOR 5 D EVERY 4 WK FOR 3 COURSES OF TREATMENT): 22/137 (16%), 7/45 (16%), 0%, not calculated
tumour outcome (control, treated, inhibition, significance) (Carcinogen: TRANS-5-AMINO-3-[2-(5-NITRO-2-FURYL)VINYL]-1,2,4-OXADIAZOLE;SQL8506, 28754-68-9, Carcinogen: TRANS-5-AMINO-3-[2-(5-NITRO-2-FURYL)VINYL]-1,2,4-OXADIAZOLE;SQL8506, 28754-68-9, Dose [Inhibitor]: 2 G/KG 16 HR BEFORE THE 1ST CARCINOGEN DOSE FOLLOWED BY ADDITIONAL DOSES IMMEDIATELY BEFORE EACH DOSE OF CARCINOGEN (STU, Route [Inhibitor]: INTRAPERITONEAL, Species: MOUSE, Strain/Sex: CD-1/FEMALE, Target Tissue: Type of Lesion: STOMACH: SQUAMOUS CARCINOMA, Dose [Carcinogen]: 1 G/KG 2/D FOR 5 D EVERY 4 WK FOR 3 COURSES OF TREATMENT): 60/137 (44%), 14/45 (31%), 30%, not calculated
tumour outcome (control, treated, inhibition, significance) (Carcinogen: UV IRRADIATION, Dose [Inhibitor]: 0.3% IN DIET BEGINNING 10 D PRIOR TO CARCINOGEN DOSE AND CONTINUING FOR DURATION OF STUDY (STUDY DURATION: 27 WK), Route [Inhibitor]: ORAL, Species: MOUSE, Strain/Sex: SKH/HRL/FEMALE, Target Tissue: Type of Lesion: SKIN: CARCINOMA OR PAPILLOMA, Dose [Carcinogen]: 1.13 J/CM2/D INCREASED EVERY 2 WK TO A FINAL VALUE OF 1.97 J/CM2/D 5 D/WK FOR 15 WK (TOTAL EXPOSURE: 135 J/CM2)): 23/44 (52%), 24/39 (62%), -19%, not calculated
tumour outcome (control, treated, inhibition, significance) (Carcinogen: UV IRRADIATION, Dose [Inhibitor]: 5% IN DIET BEGINNING 10 D PRIOR TO CARCINOGEN DOSE AND CONTINUING FOR DURATION OF STUDY (STUDY DURATION: 27 WK), Route [Inhibitor]: ORAL, Species: MOUSE, Strain/Sex: SKH/HRL/FEMALE, Target Tissue: Type of Lesion: SKIN: PAPILLOMA OR CARCINOMA, Dose [Carcinogen]: 1.13 J/CM2/D INCREASED EVERY 2 WK TO A FINAL VALUE OF 1.97 J/CM2/D 5 D/WK FOR 15 WK (TOTAL EXPOSURE: 135 J/CM2)): 23/44 (52%), 15/38 (39%), 25%, not calculated
tumour outcome (control, treated, inhibition, significance) (Carcinogen: UV IRRADIATION, Dose [Inhibitor]: 10% IN DIET BEGINNING 10 D PRIOR TO CARCINOGEN DOSE AND CONTINUING FOR DURATION OF STUDY (STUDY DURATION: 27 WK), Route [Inhibitor]: ORAL, Species: MOUSE, Strain/Sex: SKH/HRL/FEMALE, Target Tissue: Type of Lesion: SKIN: PAPILLOMA OR CARCINOMA, Dose [Carcinogen]: 1.13 J/CM2/D INCREASED EVERY 2 WK TO A FINAL VALUE OF 1.97 J/CM2/D 5 D/WK FOR 15 WK (TOTAL EXPOSURE: 135 J/CM2)): 23/44 (52%), 14/40 (35%), 33%, not calculated
outcome (Dose [Inhibitor]: 22.7 G/KG OF DIET 5 D/WK FOR 2 YR STARTING SIMULTANEOUSLY WITH CARCINOGEN TREATMENT AT 8 WK OF AGE AND CONTINUING FOR DU, Route [Inhibitor]: ORAL, Species: RAT, Strain/Sex: MRC/MALE, Target Tissue: Type of Lesion: FORESTOMACH: SQUAMOUS CELL PAPILLOMA, SQUAMOUS CELL CARCINOMA): 0/37 (0%), 21/39 (54%), not calculated
tumour outcome (control, treated, inhibition, significance) (Dose [Inhibitor]: 22.7 G/KG OF DIET 5 D/WK FOR 2 YR STARTING SIMULTANEOUSLY WITH CARCINOGEN TREATMENT AT 8 WK OF AGE AND CONTINUING FOR DU, Route [Inhibitor]: ORAL, Species: RAT, Strain/Sex: MRC/MALE, Target Tissue: Type of Lesion: LIVER: KUPFFER CELL SARCOMA): 13/37 (35%), 7/39 (18%), 49%, not significant
tumour outcome (control, treated, inhibition, significance) (Dose [Inhibitor]: 22.7 G/KG OF DIET 5 D/WK FOR 2 YR STARTING SIMULTANEOUSLY WITH CARCINOGEN TREATMENT AT 8 WK OF AGE AND CONTINUING FOR DU, Route [Inhibitor]: ORAL, Species: RAT, Strain/Sex: MRC/MALE, Target Tissue: Type of Lesion: LIVER: LIVER CELL CARCINOMA): 12/37 (32%), 10/39 (26%), 19%, not significant
